These results are taken from PubChem BioAssay AID1259407 (Chemical Carcinogenesis Research Information System (CCRIS), 2018).

For the data set, the system named is CCRIS mutagenicity, Ames/micronucleus/aberration tests. Briefly: CCRIS mutagenicity studies.
Where [1] appears, read: Test System: AMES SALMONELLA TYPHIMURIUM, Strain/Indicator: TA98, Metabolic Activation: NONE, Method: STANDARD PLATE.
The mark [2] stands for this setting: Test System: AMES SALMONELLA TYPHIMURIUM, Strain/Indicator: TA98, Metabolic Activation: RAT, LIVER, S-9, AROCLOR 1254, Method: STANDARD PLATE.
Where [3] appears, read: Test System: AMES SALMONELLA TYPHIMURIUM, Strain/Indicator: TA100, Metabolic Activation: NONE, Method: STANDARD PLATE.
[4] abbreviates: Test System: AMES SALMONELLA TYPHIMURIUM, Strain/Indicator: TA100, Metabolic Activation: RAT, LIVER, S-9, AROCLOR 1254, Method: STANDARD PLATE.
[5] abbreviates: Test System: AMES SALMONELLA TYPHIMURIUM, Strain/Indicator: TA1535, Metabolic Activation: NONE, Method: STANDARD PLATE.
[6] abbreviates: Test System: AMES SALMONELLA TYPHIMURIUM, Strain/Indicator: TA1537, Metabolic Activation: NONE, Method: STANDARD PLATE.

Calls of active or inactive are those of the source. How the calls were made is not given here.

In the case of `CCN(CC)C(=O)Nc1ccc(OCC(O)CNC(C)(C)C)c(C(C)=O)c1` (stereo not given), the mutagenic call (Test System: AMES SALMONELLA TYPHIMURIUM, Strain/Indicator: TA97, Metabolic Activation: NONE, Method: STANDARD PLATE) was “inactive; negative”; the mutagenic call under setting [1] was “inactive; negative”; the mutagenic call under setting [2] was “inactive; negative”; the mutagenic call (Test System: AMES SALMONELLA TYPHIMURIUM, Strain/Indicator: TA98, Metabolic Activation: RAT, S-9, AROCLOR 1254, Method: STANDARD PLATE) was “inactive; negative”; the mutagenic call under setting [3] is “inactive; negative”; the mutagenic call under setting [4] is “inactive; negative”. The mutagenic call (Test System: AMES SALMONELLA TYPHIMURIUM, Strain/Indicator: TA100, Metabolic Activation: RAT, S-9, AROCLOR 1254, Method: STANDARD PLATE) is “inactive; negative”; the mutagenic call (Test System: AMES SALMONELLA TYPHIMURIUM, Strain/Indicator: TA102, Metabolic Activation: NONE, Method: STANDARD PLATE) is “inactive; negative”; the mutagenic call under setting [5] is “inactive; negative”; the mutagenic call (Test System: AMES SALMONELLA TYPHIMURIUM, Strain/Indicator: TA1535, Metabolic Activation: RAT, S-9, AROCLOR 1254, Method: STANDARD PLATE) is “inactive; negative”; the mutagenic call under setting [6] was “inactive; negative”; the mutagenic call (Test System: AMES SALMONELLA TYPHIMURIUM, Strain/Indicator: TA1537, Metabolic Activation: RAT, S-9, AROCLOR 1254, Method: STANDARD PLATE) is “inactive; negative”. Besides, the mutagenic call is, setting by setting: (Test System: AMES SALMONELLA TYPHIMURIUM, Strain/Indicator: TA1538, Metabolic Activation: NONE, Method: STANDARD PLATE) “inactive; negative”; (Test System: AMES SALMONELLA TYPHIMURIUM, Strain/Indicator: TA1538, Metabolic Activation: RAT, S-9, AROCLOR 1254, Method: STANDARD PLATE) “inactive; negative”; (Test System: E. COLI, Strain/Indicator: WP2, Metabolic Activation: NONE, Method: STANDARD PLATE) “inactive; negative”; (Test System: E. COLI, Strain/Indicator: WP2, Metabolic Activation: RAT, S-9, AROCLOR 1254, Method: STANDARD PLATE) “inactive; negative”; (Test System: E. COLI, Strain/Indicator: WP2 UVRA, Metabolic Activation: NONE, Method: STANDARD PLATE) “inactive; negative”; (Test System: E. COLI, Strain/Indicator: WP2 UVRA, Metabolic Activation: RAT, S-9, AROCLOR 1254, Method: STANDARD PLATE) “inactive; negative”.

For `CS(=O)(=O)Nc1ccc(Nc2c3ccc(N=[N+]=[N-])cc3nc3cc(N=[N+]=[N-])ccc23)cc1`, the mutagenic call under setting [6] was “active; positive”.

As for `COc1ccc(C(=O)[C@@H]2O[C@@H]2c2ccccc2)cc1`, the mutagenic call by setting is: under setting [1], “inactive; negative”; under setting [2], “inactive; negative”; under setting [3], “inactive; negative”; under setting [4], “inactive; negative”.

With `O=S(=O)(Oc1ccc(Cl)c(Cl)c1)c1cccc2cccnc12`, the mutagenic call by setting is: under setting [1], “inactive; negative”; under setting [2], “active; positive”; under setting [3], “inactive; negative”; under setting [4], “active; positive”; under setting [5], “inactive; negative”; (Test System: AMES SALMONELLA TYPHIMURIUM, Strain/Indicator: TA1535, Metabolic Activation: RAT, LIVER, S-9, AROCLOR 1254, Method: STANDARD PLATE) “inactive; negative”. The mutagenic call is, setting by setting: under setting [6], “inactive; negative”; (Test System: AMES SALMONELLA TYPHIMURIUM, Strain/Indicator: TA1537, Metabolic Activation: RAT, LIVER, S-9, AROCLOR 1254, Method: STANDARD PLATE) “inactive; negative”.

For the molecule `CCCCOS(=O)(=O)c1ccccc1`, the mutagenic call is “inactive; negative” (End Point: IN VITRO MICRONUCLEUS, Test System: MOUSE LYMPHOMA L5178Y CELLS, Metabolic Activation: NONE); “inactive; negative” (End Point: IN VITRO MICRONUCLEUS, Test System: MOUSE LYMPHOMA L5178Y CELLS, Metabolic Activation: RAT, LIVER, S-9); “active; positive (p<0.01)” (End Point: In vitro micronucleus, Test System: Chinese Hamster Ovary (CHO-WBL) cells, Metabolic Activation: None); “active; positive” under setting [3]; “active; positive” (Test System: AMES SALMONELLA TYPHIMURIUM, Strain/Indicator: TA100, Metabolic Activation: RAT, LIVER, S-9, Method: STANDARD PLATE).

For the molecule `Cc1cc(-c2ccccc2)cc(C)c1N`, the mutagenic call reads like this: under setting [1], “inactive; negative”; (Test System: AMES SALMONELLA TYPHIMURIUM, Strain/Indicator: TA98, Metabolic Activation: RAT LIVER S-9, AROCLOR, Method: STANDARD PLATE) “active; positive”; under setting [3], “inactive; negative”; (Test System: AMES SALMONELLA TYPHIMURIUM, Strain/Indicator: TA100, Metabolic Activation: RAT LIVER S-9, AROCLOR, Method: STANDARD PLATE) “active; positive”.
